Converted amounts (≈) assume the structure as drawn.
Key:
[1] = system: Staphylococcus aureus ATCC 6538P FDA 209P; assay: Antimicrobial activity, serial dilution technique in Mueller–Hinton Broth 2; assay type: cell-based; conditions: average of three ± SD, - means non-active; for MIC: read-out: Minimum Inhibitory Concentration (MIC), Sa
Experimental: (§1) The synthesized compounds were tested for antimicrobial activity against a number of Gram-positive bacteria, Staphylococcus aureus (Sa), Bacillus cereus (Bc) and Enterococcus faecalis (Ef), and Gram-negative bacteria, Escherichia coli (Ec) and Pseudomonas aeruginosa (Pa), including the methicillin-resistant strains S. aureus MRSA-1 (resistant to fluoroquinolones and beta-lactams) and MRSA-2 (resistant to beta-lactams). The methicillin-resistant strains S. aureus were transferred by the Republican Clinical Hospital of the Republic of Tatarstan (Kazan). The fungicidal activity against Candida albicans (Ca) and Trichophyton mentagrophytes var. gypseum (Tm) was studied. These pathogens were chosen because they are the most widespread in the food industry and the healthcare system.
(§2) The antimicrobial activity of the QPSs was determined using the serial dilution technique in Mueller–Hinton Broth 2. The cultures used for testing included the Gram-positive bacteria Staphylococcus aureus ATCC 6538P FDA 209P, Enterococcus faecalis ATCC 2921 and Bacillus cereus ATCC 10702 NCTC 8035, the Gram-negative bacteria Escherichia coli ATCC 25922 and Pseudomonas aeruginosa ATCC 9027, and the fungi Trichophyton mentagrophytes var. gypseum 1773 and Candida albicans ATCC 10231; methicillin-resistant strains of S. aureus MRSA were obtained from hospital patients with chronic tonsillitis (MRSA-1) and sinusitis (MRSA-2) in the Republican Clinical Hospital (Kazan, Russia). […] The bacterial load was 3.0 × 10^5 cfu/mL. The results were recorded every 24 h for 5 days. The cultures were incubated at 37 °C. The experiment was repeated three times. […] The minimum inhibitory concentration (MIC) was defined as the minimum concentration of a compound that inhibits the growth of the corresponding test micro-organism. The growth of bacteria as well as the absence of growth due to the bacteriostatic action of a compound was recorded.

[2] = system: Bacillus cereus ATCC 10702 NCTC 8035; assay: as above; assay type: cell-based; conditions: average of three ± SD, - means non-active; for MIC / MBC: Bacillus cereus, Bc; for MIC: read-out: Minimum Inhibitory Concentration (MIC), Bc; for MBC: read-out: Minimum Bactericidal and Fungicidal Concentration (MBC, MFC), Bc
Experimental: as §1, §2

[3] = system: Enterococcus faecalis ATCC 2921; assay: as above; assay type: cell-based; conditions: average of three ± SD, - means non-active; for MIC / MBC: Enterococcus faecalis, ATCC2921, Ef; for MIC: read-out: Minimum Inhibitory Concentration (MIC), Ef; for MBC: read-out: Minimum Bactericidal and Fungicidal Concentration (MBC, MFC), Ef
Experimental: as §1, §2

[4] = system: Pseudomonas aeruginosa ATCC 9027; assay: as above; assay type: cell-based; conditions: average of three ± SD, - means non-active
Experimental: as §1, §2

[5] = system: methicillin-resistant S. aureus MRSA-1; assay: as above; assay type: cell-based, Staphylococcus aureus; conditions: - means non-active; for MIC / Minimum Inhibitory Concentration (MIC), MRSA-1: MRSA-1 (resistant to fluoroquinolones and beta-lactams); for MIC: read-out: Minimum Inhibitory Concentration (MIC), MRSA-1
Experimental: as §1, §2

[6] = system: methicillin-resistant S. aureus MRSA-2; assay: as above; assay type: cell-based, Staphylococcus aureus; conditions: - means non-active; for MIC / Minimum Inhibitory Concentration (MIC), MRSA-2: MRSA-2 (resistant to beta-lactams); for MIC: read-out: Minimum Inhibitory Concentration (MIC), MRSA-2
Experimental: as §1, §2

[7] = system: Trichophyton mentagrophytes var. gypseum 1773; assay: Fungicidal activity, serial dilution technique; assay type: cell-based; conditions: for Minimum Bactericidal and Fungicidal Concentration (MBC, MFC), Tm / Minimum Inhibitory Concentration (MIC), Tm: average of three ± SD, - means non-active
Experimental: as §1
(§3) The antimicrobial activity of the QPSs was determined using the serial dilution technique in Mueller–Hinton Broth 2. The cultures used for testing included the Gram-positive bacteria Staphylococcus aureus ATCC 6538P FDA 209P, Enterococcus faecalis ATCC 2921 and Bacillus cereus ATCC 10702 NCTC 8035, the Gram-negative bacteria Escherichia coli ATCC 25922 and Pseudomonas aeruginosa ATCC 9027, and the fungi Trichophyton mentagrophytes var. gypseum 1773 and Candida albicans ATCC 10231; methicillin-resistant strains of S. aureus MRSA were obtained from hospital patients with chronic tonsillitis (MRSA-1) and sinusitis (MRSA-2) in the Republican Clinical Hospital (Kazan, Russia). Ciprofloxacin and ketoconazole were purchased from Sigma-Aldrich. The bacterial load was 3.0 × 10^5 cfu/mL. The results were recorded every 24 h for 5 days. The cultures were incubated at 37 °C. The experiment was repeated three times. […] The minimum inhibitory concentration (MIC) was defined as the minimum concentration of a compound that inhibits the growth of the corresponding test micro-organism. The growth of bacteria as well as the absence of growth due to the bacteriostatic action of a compound was recorded.

[8] = system: Candida albicans ATCC 10231; assay: Fungicidal activity, serial dilution technique; assay type: cell-based; conditions: average of three ± SD, - means non-active; for MBC / MIC / MFC: Candida albicans, ATCC10231, Ca; for MBC / MFC: read-out: Minimum Bactericidal and Fungicidal Concentration (MBC, MFC), Ca; for MIC: read-out: Minimum Inhibitory Concentration (MIC), Ca
Experimental: as §1, §3

[9] = system: Escherichia coli ATCC 25922; assay: Antimicrobial activity, serial dilution technique in Mueller–Hinton Broth 2; assay type: cell-based; conditions: average of three ± SD, - means non-active
Experimental: as §1, §2

[10] = system: Escherichia coli ATCC 25922; assay: as above; assay type: cell-based; conditions: average of three ± SD, - means non-active; for MBC: Escherichia coli, ATCC25922, Ec, read-out: Minimum Bactericidal and Fungicidal Concentration (MBC, MFC), Ec
[11] = Trichophyton mentagrophytes, read-out: Minimum Bactericidal and Fungicidal Concentration (MBC, MFC), Tm

Row | Compound | MIC ([1]; Staphylococcus aureus, Sa) [mg/L] | MIC [2] [mg/L] | MIC [3] [mg/L] | MIC ([5]; Staphylococcus aureus, MRSA) [mg/L] | MIC ([6]; Staphylococcus aureus, MRSA) [mg/L] | Minimum Bactericidal and Fungicidal Concentration (MBC, MFC), Tm [7] [mg/L] | Minimum Inhibitory Concentration (MIC), Tm [7] [mg/L] | MBC [8] [mg/L] | MIC [8] [mg/L] | Minimum Bactericidal and Fungicidal Concentration (MBC, MFC), Sa [1] [mg/L] | MBC [2] [mg/L] | MBC [3] [mg/L] | MBC [10] [mg/L] | Minimum Inhibitory Concentration (MIC), MRSA-1 [5] [mg/L] | Minimum Bactericidal and Fungicidal Concentration (MBC, MFC), MRSA-1 ([5]; MRSA-1) [mg/L] | Minimum Bactericidal and Fungicidal Concentration (MBC, MFC), MRSA-2 ([6]; MRSA-2) [mg/L] | Minimum Inhibitory Concentration (MIC), Ca ([8]; Ca) [mg/L] | Minimum Inhibitory Concentration (MIC), Ec [9] [mg/L] | Minimum Inhibitory Concentration (MIC), Sa [1] [mg/L] | Minimum Bactericidal and Fungicidal Concentration (MBC, MFC), Bc [2] [mg/L] | other results
1 | O=C(O)c1cn(C2CC2)c2cc(N3CCNCC3)c(F)cc2c1=O [Ciprofloxacin, reference compound] | 0.5 ± 0.03 (≈ 1.51 µM) | 0.5 ± 0.04 (≈ 1.51 µM) | 3.9 ± 0.3 (≈ 11.8 µM) | 125 ± 11 (≈ 377 µM) | 0.9 ± 0.07 (≈ 2.72 µM) |  |  |  |  |  |  |  |  |  |  |  |  |  |  |  | MIC ([4]; Pseudomonas aeruginosa, ATCC9027, Pa, read-out: Minimum Inhibitory Concentration (MIC), Pa): 0.5 ± 0.03 mg/L (≈ 1.51 µM)
2 | CCCCCCCCCCC[P+](C(C)(C)C)(C(C)(C)C)C(C)(C)C [Compound 11a] | 0.9 ± 0.07 | 1.9 ± 0.1 | 7.8 ± 0.5 |  | 0.9 ± 0.08 | 31.3 ± 2.5 | 31.3 ± 2.5 | 62.5 ± 5.7 | 62.5 ± 5.5 | 1.9 ± 0.1 | 125 ± 10 | 7.8 ± 0.6 | 31.3 ± 2.3 | 1.9 ± 0.1 | 1.9 ± 0.1 | 7.8 ± 0.6 |  |  |  |  | MIC ([9]; Escherichia coli, ATCC25922, Ec, read-out: Minimum Inhibitory Concentration (MIC), Ec): 31.3 ± 2.6 mg/L
3 | CCCCCCCCCCC[P+](C(C)(C)C)(C(C)(C)C)C(C)(C)C [Compound 11b] |  |  |  |  |  | 125 ± 9 | 125 ± 9 |  |  | 3.9 ± 0.2 |  |  |  | 0.3 ± 0.02 | 0.5 ± 0.03 | 0.9 ± 0.07 | 31.3 ± 2.4 | 62.5 ± 5.3 | 0.9 ± 0.07 | 125 ± 10 | Minimum Bactericidal and Fungicidal Concentration (MBC, MFC), Ca ([8]; Ca): 31.3 ± 2.1 mg/L; Minimum Inhibitory Concentration (MIC), Bc [2]: 1.9 ± 0.1 mg/L; Minimum Bactericidal and Fungicidal Concentration (MBC, MFC), Ef [3]: 15.6 ± 1.2 mg/L; Minimum Inhibitory Concentration (MIC), Ef [3]: 7.8 ± 0.6 mg/L; Minimum Bactericidal and Fungicidal Concentration (MBC, MFC), Ec ([10]; Ec): 62.5 ± 5.4 mg/L; Minimum Inhibitory Concentration (MIC), MRSA-2 [6]: 0.5 ± 0.04 mg/L
4 | CCCCCCCCCCCCCCCC[P+](C(C)(C)C)(C(C)(C)C)C(C)(C)C [Compound 16a] | 0.5 ± 0.04 | 1.9 ± 0.1 | 0.5 ± 0.03 | 1.9 ± 0.1 | 0.5 ± 0.03 |  |  | 3.9 ± 0.3 |  |  | 31.3 ± 2.2 | 0.5 ± 0.03 | 1.9 ± 0.1 |  |  |  | 1.9 ± 0.1 | 0.9 ± 0.07 |  |  | MBC ([1]; Staphylococcus aureus, Sa, read-out: Minimum Bactericidal and Fungicidal Concentration (MBC, MFC), Sa): 0.5 ± 0.03 mg/L; Minimum Inhibitory Concentration (MIC), Pa ([4]; Pa): 31.3 ± 2.7 mg/L; MBC ([4]; Pseudomonas aeruginosa, ATCC9027, Pa, read-out: Minimum Bactericidal and Fungicidal Concentration (MBC, MFC), Pa): 125 ± 9 mg/L; MBC ([5]; Staphylococcus aureus, MRSA, MRSA-1, read-out: Minimum Bactericidal and Fungicidal Concentration (MBC, MFC), MRSA-1): 7.8 ± 0.6 mg/L; MBC ([6]; Staphylococcus aureus, MRSA, MRSA-2, read-out: Minimum Bactericidal and Fungicidal Concentration (MBC, MFC), MRSA-2): 7.8 ± 0.7 mg/L
5 | CCCCCCCCCCCCCCCCC[P+](C(C)(C)C)(C(C)(C)C)C(C)(C)C [Compound 17b] |  |  |  |  |  | 125 ± 11 | 125 ± 10 |  |  | 0.5 ± 0.04 |  |  |  | 1.9 ± 0.1 | 1.9 ± 0.1 | 1.9 ± 0.1 | 1.9 ± 0.1 | 15.6 ± 1.2 | 0.5 ± 0.04 | 15.6 ± 1.3 | MFC [8]: 7.8 ± 0.7 mg/L; Minimum Inhibitory Concentration (MIC), Bc [2]: 1.9 ± 0.1 mg/L; Minimum Bactericidal and Fungicidal Concentration (MBC, MFC), Ef [3]: 3.9 ± 0.2 mg/L; Minimum Inhibitory Concentration (MIC), Ef [3]: 0.5 ± 0.03 mg/L; Minimum Bactericidal and Fungicidal Concentration (MBC, MFC), Pa ([4]; Pa): 15.6 ± 1.3 mg/L; Minimum Inhibitory Concentration (MIC), Pa ([4]; Pa): 7.8 ± 0.6 mg/L; Minimum Inhibitory Concentration (MIC), MRSA-2 [6]: 1.9 ± 0.1 mg/L
6 | CC(=O)N1CCN(c2ccc(OCC3COC(Cn4ccnc4)(c4ccc(Cl)cc4Cl)O3)cc2)CC1 (stereo not shown) [Ketoconazole, reference compound] |  |  |  |  |  |  | 3.9 ± 0.2 | 3.9 ± 0.3 (≈ 7.34 µM) | 3.9 ± 0.3 (≈ 7.34 µM) |  |  |  |  |  |  |  | 3.9 ± 0.3 |  |  |  | MBC [7, 11]: 3.9 ± 0.2 mg/L (≈ 7.34 µM); MFC [7, 11]: 3.9 ± 0.2 mg/L (≈ 7.34 µM); MIC ([7]; Trichophyton mentagrophytes, read-out: Minimum Inhibitory Concentration (MIC), Tm): 3.9 ± 0.2 mg/L (≈ 7.34 µM); MFC [8]: 3.9 ± 0.3 mg/L (≈ 7.34 µM)

Source: PMC8744835, “Sterically Hindered Quaternary Phosphonium Salts (QPSs): Antimicrobial Activity and Hemolytic and Cytotoxic Properties” (International Journal of Molecular Sciences, 2021)
